Tested on: 521955-158-R6-J3-PDC complex spheroid growth, % test/control
Test: Anticancer human tumor 521955-158-R6-J3-PDC patient-derived pancreatic carcinoma cell line growth inhibition [Asc]
Conditions: for viability, T/C: stronger effect = lower value
In short: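 Complex solid-tumor spheroids incorporating human endothelial and mesenchymal stem cells received single agents or combinations over half-log dilution ranges anchored to clinical Cmax.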

[1] = curve of first compound, second compound 0.0316 µM
[2] = curve of first compound, second compound 0.1 µM
[3] = curve of first compound, second compound 0.316 µM
[4] = curve of first compound, second compound 1 µM
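Also: spheroids exposed to compounds for 7 days.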
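For viability, T/C in this document: 100% = DMSO vehicle control wells.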

For `NC(=O)C(=Cn1cnc(-c2cc(C(F)(F)F)cc(C(F)(F)F)c2)n1)c1cncnc1` + Cc1c(S(C)(=O)=O)c(-c2cc(F)cc(N3CCN(c4ccc(NS(=O)(=O)c5ccc(NC(CCN6CCC(C(=O)OCCCP(=O)(O)O)CC6)CSc6ccccc6)c(S(=O)(=O)C(F)(F)F)c5)cc4)CC3)c2)c(-c2ccc(Cl)cc2)n1C(C)C, the IC50 [1] was over 300 nM, the IC50 [2] was over 300 nM and the IC50 [3] was over 300 nM. It also gave an IC50 [4] of under 0.949 nM, an IC50 (curve of first compound, second compound 3.16 µM) of under 0.949 nM and an IC50 (curve of first compound, second compound 10 µM) of under 0.949 nM. The viability, T/C (second compound 0.0316 µM, first compound 0.000949 µM) was 95%, the viability, T/C (second compound 0.0316 µM, first compound 0.003 µM) was 97.1% and the viability, T/C (second compound 0.0316 µM, first compound 0.00949 µM) was 60.6%. The viability, T/C (second compound 0.0316 µM, first compound 0.03 µM) was 82.1%, the viability, T/C (second compound 0.0316 µM, first compound 0.0949 µM) was 103% and the viability, T/C (second compound 0.0316 µM, first compound 0.3 µM) was 108%. The viability, T/C (second compound 0.1 µM, first compound 0.000949 µM) was 84%, the viability, T/C (second compound 0.1 µM, first compound 0.003 µM) was 90.4% and the viability, T/C (second compound 0.1 µM, first compound 0.00949 µM) was 70.9%. It also gave a viability, T/C (second compound 0.1 µM, first compound 0.03 µM) of 62.1%, a viability, T/C (second compound 0.1 µM, first compound 0.0949 µM) of 89.3% and a viability, T/C (second compound 0.1 µM, first compound 0.3 µM) of 85.9%. For the same compound, the viability, T/C (second compound 0.316 µM, first compound 0.000949 µM) was 70.3%, the viability, T/C (second compound 0.316 µM, first compound 0.003 µM) was 49% and the viability, T/C (second compound 0.316 µM, first compound 0.00949 µM) was 47.2%. For the same compound, the viability, T/C (second compound 0.316 µM, first compound 0.03 µM) was 47.5%, the viability, T/C (second compound 0.316 µM, first compound 0.0949 µM) was 69.6% and the viability, T/C (second compound 0.316 µM, first compound 0.3 µM) was 43.5%. The viability, T/C (second compound 1 µM, first compound 0.000949 µM) was 47.1%, the viability, T/C (second compound 1 µM, first compound 0.003 µM) was 30.3% and the viability, T/C (second compound 1 µM, first compound 0.00949 µM) was 34.6%. It also gave a viability, T/C (second compound 1 µM, first compound 0.03 µM) of 33%, a viability, T/C (second compound 1 µM, first compound 0.0949 µM) of 43.8% and a viability, T/C (second compound 1 µM, first compound 0.3 µM) of 18.4%. For the same compound, the viability, T/C (second compound 3.16 µM, first compound 0.000949 µM) was 19.8%, the viability, T/C (second compound 3.16 µM, first compound 0.003 µM) was 21.9% and the viability, T/C (second compound 3.16 µM, first compound 0.00949 µM) was 22.6%. For the same compound, the viability, T/C (second compound 3.16 µM, first compound 0.03 µM) was 20.9%, the viability, T/C (second compound 3.16 µM, first compound 0.0949 µM) was 16.2% and the viability, T/C (second compound 3.16 µM, first compound 0.3 µM) was 5.69%. For the same compound, the viability, T/C (second compound 10 µM, first compound 0.000949 µM) was 12.2%, the viability, T/C (second compound 10 µM, first compound 0.003 µM) was 16.9% and the viability, T/C (second compound 10 µM, first compound 0.00949 µM) was 11.6%. The viability, T/C (second compound 10 µM, first compound 0.03 µM) was 10.2%, the viability, T/C (second compound 10 µM, first compound 0.0949 µM) was 9.2% and the viability, T/C (second compound 10 µM, first compound 0.3 µM) was 0.76%.
In the case of `CNC(C)C(=O)NC1CN(S(=O)(=O)c2cccc(S(=O)(=O)N3CCC4CCC(C(=O)NC(c5ccccc5)c5ccccc5)N4C(=O)C(NC(=O)C(C)NC)C3)c2)CCC2CCC(C(=O)NC(c3ccccc3)c3ccccc3)N2C1=O` (stereo unspecified), the IC50 (compound alone, run of 11/15/2022) is reported as over 1000 nM and the IC50 (curve of compound) is reported as over 1000 nM.
Compound `O=C(c1cc(Cc2n[nH]c(=O)c3ccccc23)ccc1F)N1CCN(C(=O)C2CC2)CC1` + CNC(C)C(=O)NC1CN(S(=O)(=O)c2cccc(S(=O)(=O)N3CCC4CCC(C(=O)NC(c5ccccc5)c5ccccc5)N4C(=O)C(NC(=O)C(C)NC)C3)c2)CCC2CCC(C(=O)NC(c3ccccc3)c3ccccc3)N2C1=O has an IC50 (curve of first compound, second compound 0.00316 µM) of over 10000 nM, an IC50 (curve of first compound, second compound 0.01 µM) of over 10000 nM and an IC50 [1] of over 10000 nM. For the same compound, the IC50 [2] was over 10000 nM, the IC50 [3] was over 10000 nM and the IC50 [4] was over 10000 nM. For the same compound, the viability, T/C (second compound 0.00316 µM, first compound 0.0316 µM) was 159%, the viability, T/C (second compound 0.00316 µM, first compound 0.1 µM) was 159% and the viability, T/C (second compound 0.00316 µM, first compound 0.316 µM) was 153%. It also gave a viability, T/C (second compound 0.00316 µM, first compound 1 µM) of 151%, a viability, T/C (second compound 0.00316 µM, first compound 3.16 µM) of 155% and a viability, T/C (second compound 0.00316 µM, first compound 10 µM) of 160%. The viability, T/C (second compound 0.01 µM, first compound 0.0316 µM) was 166%, the viability, T/C (second compound 0.01 µM, first compound 0.1 µM) was 133% and the viability, T/C (second compound 0.01 µM, first compound 0.316 µM) was 148%. For the same compound, the viability, T/C (second compound 0.01 µM, first compound 1 µM) was 153%, the viability, T/C (second compound 0.01 µM, first compound 3.16 µM) was 138% and the viability, T/C (second compound 0.01 µM, first compound 10 µM) was 119%. The viability, T/C (second compound 0.0316 µM, first compound 0.0316 µM) was 97.5%, the viability, T/C (second compound 0.0316 µM, first compound 0.1 µM) was 87.8% and the viability, T/C (second compound 0.0316 µM, first compound 0.316 µM) was 87.7%. It also gave a viability, T/C (second compound 0.0316 µM, first compound 1 µM) of 74.3%, a viability, T/C (second compound 0.0316 µM, first compound 3.16 µM) of 132% and a viability, T/C (second compound 0.0316 µM, first compound 10 µM) of 84.9%. It also gave a viability, T/C (second compound 0.1 µM, first compound 0.0316 µM) of 92%, a viability, T/C (second compound 0.1 µM, first compound 0.1 µM) of 81.5% and a viability, T/C (second compound 0.1 µM, first compound 0.316 µM) of 87.4%. It also gave a viability, T/C (second compound 0.1 µM, first compound 1 µM) of 85.8%, a viability, T/C (second compound 0.1 µM, first compound 3.16 µM) of 138% and a viability, T/C (second compound 0.1 µM, first compound 10 µM) of 82.3%. The viability, T/C (second compound 0.316 µM, first compound 0.0316 µM) was 92.5%, the viability, T/C (second compound 0.316 µM, first compound 0.1 µM) was 81.5% and the viability, T/C (second compound 0.316 µM, first compound 0.316 µM) was 74.3%. The viability, T/C (second compound 0.316 µM, first compound 1 µM) was 72.7%, the viability, T/C (second compound 0.316 µM, first compound 3.16 µM) was 138% and the viability, T/C (second compound 0.316 µM, first compound 10 µM) was 81.7%. For the same compound, the viability, T/C (second compound 1 µM, first compound 0.0316 µM) was 93.3%, the viability, T/C (second compound 1 µM, first compound 0.1 µM) was 85.4% and the viability, T/C (second compound 1 µM, first compound 0.316 µM) was 95.1%. For the same compound, the viability, T/C (second compound 1 µM, first compound 1 µM) was 89.3%, the viability, T/C (second compound 1 µM, first compound 3.16 µM) was 138% and the viability, T/C (second compound 1 µM, first compound 10 µM) was 80.8%.
